According to patent EP2535049A1 (Proyecto de Biomedicina Cima, S.L., priority 2011, dated 2012):
“Also recorded” adds a separate entry of the source.

Legend:
J20 mouse model of AD = experiment: Morris water maze in J20 mouse model of AD; assay type: in vivo, mice; settings: for escape latencies in the hidden platform phase: 4-week treatment, 15 mg/kg/day orally, 20 month old J20 mice, data not shown; for MWM performance, escape latencies in the invisible platform phase / percentage of time spent in the right quadrant (memory retention): 10 weeks of treatment; for MWM performance, escape latencies in the invisible platform phase: 15 mg/Kg orally once daily, 21-22 month-old J20 mice, vs saline; for percentage of time spent in the right quadrant (memory retention): platform removed, days 7 and 9, 15 mg/Kg, J20 mice, randomness = 25%
Procedure: Transgenic mice overexpressing human amyloid precursor protein (hAPP) with the Swedish (K670N/M671L) and Indiana (V717F) familial AD mutations under control of the PDGF β-chain promoter were used (J20 line) (Mucke et al, 2000). The mice were on an inbred C57BL/6J genetic background. […] Results were compared with those obtained from age-matched negative littermates (controls). To test the effect of the PDE5 inhibitors in cognition capacity related to aging, a second treatment was carried out using 10-12 month-old non-transgenic (wild type) mice on an inbred C57/B6xSJL genetic background. […] The MWM test was used to evaluate spatial memory as previously described (Hsiao et al., 1996; Reed et al., 2010; Ricobaraza et al., 2009). After treatments, groups of animals underwent spatial reference learning and memory testing in the MWM. The water maze was a circular pool (diameter 1.2 m) filled with water maintained at 20 °C and made opaque by the addition of non-toxic white paint. Mice were trained for three consecutive days (8 trials/day) swimming to a raised platform (visible-platform). No distal visible cues were present during this phase. The same platform location was used for all visible-platform sessions and was changed for the invisible-platform training (submerged 1 cm beneath the surface) conducted over […] (4 trials/day) with all visible distal cues present in this phase. In both visible- and hidden-platform versions, mice were placed pseudo-randomly in selected locations, facing toward the wall of the pool to eliminate the potentially confounding contribution of extramaze spatial cues. Each trial was terminated when the mouse reached the platform or after 60 seconds, whichever came first. To test the retention, three probe trials were performed at the beginning of 4th, 7th, and the last day of the test (day 9). In the probe trials the platform was removed from the pool, and the percentage of time spent in the quadrant where the platform was previously set was recorded. All trials were monitored by a camera above the center of the pool connected to a SMART-LD program (Panlab S.L., Barcelona, Spain) for subsequent analysis of escape latencies, swimming speed, path length and percent time spent in each quadrant of the pool during probe trials. All experimental procedures were performed blind to groups.

[1] = tested on: aged wild type animals (C57/b6xSJL); experiment: Morris water maze in aged wild type animals; assay type: in vivo, mice; settings: 5-weeks treatment, 15 mg/Kg orally; aged (12-14-month-old) wild type animals; vs saline
Procedure: Results were compared with those obtained from age-matched negative littermates (controls). […] The MWM test was used to evaluate spatial memory as previously described (Hsiao et al., 1996; Reed et al., 2010; Ricobaraza et al., 2009). After treatments, groups of animals underwent spatial reference learning and memory testing in the MWM. The water maze was a circular pool (diameter 1.2 m) filled with water maintained at 20 °C and made opaque by the addition of non-toxic white paint. Mice were trained for three consecutive days (8 trials/day) swimming to a raised platform (visible-platform). No distal visible cues were present during this phase. The same platform location was used for all visible-platform sessions and was changed for the invisible-platform training (submerged 1 cm beneath the surface) conducted over 8 consecutive days (4 trials/day) with all visible distal cues present in this phase. […] In the probe trials the platform was removed from the pool, and the percentage of time spent in the quadrant where the platform was previously set was recorded. All trials were monitored by a camera above the center of the pool connected to a SMART-LD program (Panlab S.L., Barcelona, Spain) for subsequent analysis of escape latencies, swimming speed, path length and percent time spent in each quadrant of the pool during probe trials. […]

CN1CC(=O)N2[C@H](c3ccc4c(c3)OCO4)c3[nH]c4ccccc4c3C[C@@H]2C1=O [tadalafil, (6R-trans)-6-(1,3-benzodioxol-5-yl)-2,3,6,7,12,12a-hexahydro-2-methyl-pyrazino [1',2':1,6] pyrido [3,4-b]indole-1,4-dione]
escape latencies in the hidden platform phase (J20 mouse model of AD): no significant differences were detected
MWM performance, escape latencies in the invisible platform phase (J20 mouse model of AD; 15 mg/kg): even better than those of non-transgenic mice; also recorded: cognitive improvement was higher in the group of tadalafil than in the group of sildenafil; also recorded: markedly improves the performance
percentage of time spent in the right quadrant (memory retention) (J20 mouse model of AD): higher than 25%
learning ability and memory retention in the MWM [1]: improved learning ability and memory retention

CCCc1nn(C)c2c(=O)[nH]c(-c3cc(S(=O)(=O)N4CCN(C)CC4)ccc3OCC)nc12 [sildenafil]
escape latencies in the hidden platform phase (J20 mouse model of AD): no significant differences were detected
MWM performance, escape latencies in the invisible platform phase (J20 mouse model of AD): markedly improves the performance
percentage of time spent in the right quadrant (memory retention) (J20 mouse model of AD): higher than 25%
learning ability and memory retention in the MWM [1]: only observed in the FC test
